Experiments:
RSV A2 = assay: Virus titre in air-liquid interface (ALI) cultured bronchial epithelial cells (plaque assay); assay type: cell-based, human respiratory syncytial virus; details: for Effect on RSV titre (in words): early intervention
Experimental: Assessment of Virus Titre in Air-liquid Interface (ALI) Cultured Bronchial Epithelial Cells
ALI cultured human bronchial epithelial cells were sourced from Epithelix Sarl (Geneva, Switzerland) and maintained by changing the basal media every 3-4 days, whilst the apical surface was washed once weekly with PBS. On Day 0, the apical surface of each well was washed once with sterile PBS (300 μL) and the inserts were transferred to new 24-well plates containing fresh MucilAir culture medium (780 μL; EP04MM). RSV A2 (50 μL; diluted in MucilAir culture medium to give a final MOI of 0.01) was added to cells for one hr (37° C./5% CO2). For the purposes of standardizing MOI calculations, each MucilAir insert was estimated to contain 2×10^5 apical facing cells per well. Virus inoculum was removed with a pipette and inserts were washed twice with sterile PBS (300 μL).
Sampling was conducted by adding sterile PBS (300 μL) to the apical surface of each well for 5 min. The apical sample was then removed and transferred to tubes containing 50% sucrose dissolved in PBS (100 μL) before being stored at −80° C. This harvesting procedure was repeated daily beginning on day 0 and concluding on day 7.
ALI cultures were dosed apically with test compound on days 0-7 for “early intervention” protocols, or days 3-7 for “late intervention” protocols. The test compound (50 μL in 0.5% DMSO/PBS) was added to the apical surface and incubated (37° C./5% CO2) for 1 hr before being removed. Vehicle treatments (0.5% DMSO/PBS) were performed on the corresponding apical surfaces to ensure each well received the same number of manipulations. On day 5, the basal media was removed from each well and replenished with fresh MucilAir culture media as a necessary maintenance step for ALI culture cells.
Virus titre was quantified by plaque assay. HEp2 cells were grown in 24-well plates (Corning) for 48 hr prior to infection in DMEM containing 10% FBS until they attained 100% confluency. Collected samples were thawed at RT and ten-fold serial dilutions were prepared in serum-free DMEM. The growth medium from HEp2 cells was aspirated and replaced with 300 μL of serially diluted virus collections and left to infect at 37° C./5% CO2 for 4 hr. The infectious media was aspirated and replaced with Plaque Assay Overlay (500 μL; 1% methylcellulose in MEM, 2% FBS, 1% Pen Strep, 0.5 μg/mL amphotericin B), and left for 7 days at 37° C./5% CO2. Cells were fixed with ice-cold methanol for 10 min and blocked with 5% powdered milk (Marvel) in 0.05% PBS-tween (‘blocking buffer’) for 1 hr at RT. Anti-RSV F-protein antibody (2F7; Abcam: ab43812) was diluted to a 1:100 concentration in blocking buffer and added to cells for 1 hr at RT with shaking. Cells were washed using PBS and incubated with the secondary antibody (HRP conjugated goat anti-mouse secondary antibody (Dako P044701-2) diluted in 1:400 with blocking buffer) for 1 hr at RT with shaking. The secondary antibody solution was removed and cells were washed with PBS before the metal-enhanced development substrate DAB was prepared in ultra-pure water (according to manufacturer's instructions). Each well received 300 μL of development substrate (sigmaFAST D0426) until plaques were visible. Plaques were counted by eye and confirmed using light microscopy, allowing the calculation of plaque forming units per mL.

hRSV/A/Long = assay: RSV infection in cotton rats: virus titre in lung (plaque assay); assay type: in vivo, Sigmodon hispidus cotton rats; details: for Virus titre in lung, Geometric mean: cotton rats, intranasal, day 4
HEp2 cells = assay: Cell viability: resazurin assay; assay type: cell-based, human; details: 5 days
In short: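 HEp2 cells in 5% FBS DMEM exposed to compounds (0.5% DMSO final) for 5 days at 37 °C/5% CO2, then resazurin added for 6 h; fluorescence read at 545/590 nm. Percent viability loss calculated versus 0.5% DMSO vehicle, with increases shown as negative values; CC50 taken from concentration-response curves where appropriate.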

Cc1cnc(N2CC3(CCOCC3)C2)c(C(=O)Nc2ccc(C(=O)N3CCc4cc(C(=O)Nc5c(C)cccc5F)sc4-c4ccccc43)cc2)c1 [Example 5, N-(2-Fluoro-6-methylphenyl)-6-(4-(5-methyl-2-(7-oxa-2-azaspiro[3.5]nonan-2-yl)nicotinamido)benzoyl)-5,6-dihydro-4H-benzo[b]thieno[2,3-d]azepine-2-carboxamide]
Virus titre in apical wash, geometric mean ± SD (RSV A2; early intervention (days 0-7), 0.004 mg/mL, day 0): 0.0 ± 0.0 log PFU/mL
Virus titre in apical wash, geometric mean ± SD (RSV A2; early intervention (days 0-7), 0.004 mg/mL, day 1): 0.61 ± 0.86 log PFU/mL
Virus titre in apical wash, geometric mean ± SD (RSV A2; early intervention (days 0-7), 0.004 mg/mL, day 2): 3.1 ± 0.22 log PFU/mL
Virus titre in apical wash, geometric mean ± SD (RSV A2; early intervention (days 0-7), 0.004 mg/mL, day 3): 3.9 ± 0.18 log PFU/mL
Virus titre in apical wash, geometric mean ± SD (RSV A2; early intervention (days 0-7), 0.004 mg/mL, day 4): 4.1 ± 0.16 log PFU/mL
Virus titre in apical wash, geometric mean ± SD (RSV A2; early intervention (days 0-7), 0.004 mg/mL, day 5): 4.2 ± 0.12 log PFU/mL
Virus titre in apical wash, geometric mean ± SD (RSV A2; early intervention (days 0-7), 0.004 mg/mL, day 6): 3.2 ± 0.26 log PFU/mL
Virus titre in apical wash, geometric mean ± SD (RSV A2; early intervention (days 0-7), 0.004 mg/mL, day 7): 2.8 ± 0.43 log PFU/mL
Virus titre in apical wash, geometric mean ± SD (RSV A2; early intervention (days 0-7), 0.02 mg/mL, day 0): 0.0 ± 0.0 log PFU/mL
Virus titre in apical wash, geometric mean ± SD (RSV A2; early intervention (days 0-7), 0.02 mg/mL, day 1): 0.0 ± 0.0 log PFU/mL
Virus titre in apical wash, geometric mean ± SD (RSV A2; early intervention (days 0-7), 0.02 mg/mL, day 2): 0.0 ± 0.0 log PFU/mL
Virus titre in apical wash, geometric mean ± SD (RSV A2; early intervention (days 0-7), 0.02 mg/mL, day 3): 0.0 ± 0.0 log PFU/mL
Virus titre in apical wash, geometric mean ± SD (RSV A2; early intervention (days 0-7), 0.02 mg/mL, day 4): 1.4 ± 1.1 log PFU/mL
Virus titre in apical wash, geometric mean ± SD (RSV A2; early intervention (days 0-7), 0.02 mg/mL, day 5): 1.9 ± 1.4 log PFU/mL
Virus titre in apical wash, geometric mean ± SD (RSV A2; early intervention (days 0-7), 0.02 mg/mL, day 6): 0.0 ± 0.0 log PFU/mL
Virus titre in apical wash, geometric mean ± SD (RSV A2; early intervention (days 0-7), 0.02 mg/mL, day 7): 0.0 ± 0.0 log PFU/mL
Virus titre in apical wash, geometric mean ± SD (RSV A2; early intervention (days 0-7), 0.1 mg/mL, day 0): 0.0 ± 0.0 log PFU/mL
Virus titre in apical wash, geometric mean ± SD (RSV A2; early intervention (days 0-7), 0.1 mg/mL, day 1): 0.0 ± 0.0 log PFU/mL
Virus titre in apical wash, geometric mean ± SD (RSV A2; early intervention (days 0-7), 0.1 mg/mL, day 2): 0.0 ± 0.0 log PFU/mL
Virus titre in apical wash, geometric mean ± SD (RSV A2; early intervention (days 0-7), 0.1 mg/mL, day 3): 0.0 ± 0.0 log PFU/mL
Virus titre in apical wash, geometric mean ± SD (RSV A2; early intervention (days 0-7), 0.1 mg/mL, day 4): 0.0 ± 0.0 log PFU/mL
Virus titre in apical wash, geometric mean ± SD (RSV A2; early intervention (days 0-7), 0.1 mg/mL, day 5): 0.0 ± 0.0 log PFU/mL
Virus titre in apical wash, geometric mean ± SD (RSV A2; early intervention (days 0-7), 0.1 mg/mL, day 6): 0.0 ± 0.0 log PFU/mL
Virus titre in apical wash, geometric mean ± SD (RSV A2; early intervention (days 0-7), 0.1 mg/mL, day 7): 0.0 ± 0.0 log PFU/mL
Effect on RSV titre (in words) (RSV A2; 0.1 μg/mL over 7 days): complete inhibition
Effect on RSV titre (in words) (RSV A2; apical well daily from day 0 to day 7): concentration dependent inhibition
Effect on virus titre (in words) (RSV A2; early or late stage intervention): completely inhibited virus titre
Virus titre in apical wash, geometric mean ± SD (RSV A2; late intervention (days 3-7), 0.02 mg/mL, day 0): 0.0 ± 0.0 log PFU/mL
Virus titre in apical wash, geometric mean ± SD (RSV A2; late intervention (days 3-7), 0.02 mg/mL, day 1): 1.6 ± 1.1 log PFU/mL
Virus titre in apical wash, geometric mean ± SD (RSV A2; late intervention (days 3-7), 0.02 mg/mL, day 2): 3.9 ± 0.15 log PFU/mL
Virus titre in apical wash, geometric mean ± SD (RSV A2; late intervention (days 3-7), 0.02 mg/mL, day 3): 5.2 ± 0.04 log PFU/mL
Virus titre in apical wash, geometric mean ± SD (RSV A2; late intervention (days 3-7), 0.02 mg/mL, day 4): 3.8 ± 0.50 log PFU/mL
Virus titre in apical wash, geometric mean ± SD (RSV A2; late intervention (days 3-7), 0.02 mg/mL, day 5): 3.6 ± 0.13 log PFU/mL
Virus titre in apical wash, geometric mean ± SD (RSV A2; late intervention (days 3-7), 0.02 mg/mL, day 6): 0.0 ± 0.0 log PFU/mL
Virus titre in apical wash, geometric mean ± SD (RSV A2; late intervention (days 3-7), 0.02 mg/mL, day 7): 1.3 ± 0.94 log PFU/mL
Virus titre in apical wash, geometric mean ± SD (RSV A2; late intervention (days 3-7), 0.1 mg/mL, day 0): 0.0 ± 0.0 log PFU/mL
Virus titre in apical wash, geometric mean ± SD (RSV A2; late intervention (days 3-7), 0.1 mg/mL, day 1): 2.3 ± 0.35 log PFU/mL
Virus titre in apical wash, geometric mean ± SD (RSV A2; late intervention (days 3-7), 0.1 mg/mL, day 2): 4.1 ± 0.14 log PFU/mL
Virus titre in apical wash, geometric mean ± SD (RSV A2; late intervention (days 3-7), 0.1 mg/mL, day 3): 5.0 ± 0.14 log PFU/mL
Virus titre in apical wash, geometric mean ± SD (RSV A2; late intervention (days 3-7), 0.1 mg/mL, day 4): 3.8 ± 0.31 log PFU/mL
Virus titre in apical wash, geometric mean ± SD (RSV A2; late intervention (days 3-7), 0.1 mg/mL, day 5): 1.7 ± 1.2 log PFU/mL
Virus titre in apical wash, geometric mean ± SD (RSV A2; late intervention (days 3-7), 0.1 mg/mL, day 6): 0.0 ± 0.0 log PFU/mL
Virus titre in apical wash, geometric mean ± SD (RSV A2; late intervention (days 3-7), 0.1 mg/mL, day 7): 0.0 ± 0.0 log PFU/mL
Effect on virus titre (in words) (RSV A2; late intervention, administered from day 3, days 6 and 7 post infection): dramatic reduction of virus titre
Effect on virus titre in the lungs (in words) (hRSV/A/Long; RSV A2 infected cotton rats): completely inhibited virus titre
Virus titre in lung, Geometric mean (hRSV/A/Long; Drug Conc 1.0 mg/mL): 4.5 log, PFU/lung
Virus titre in lung, Geometric mean (hRSV/A/Long; Drug Conc 3.3 mg/mL, LOQ 2.3): <2.3^2 log, PFU/lung
Effect on virus titre in lung homogenates (in words) (hRSV/A/Long; hRSV/A/Long infected cotton rats on day4): potent dose-dependent inhibition of virus titre
CC50 (HEp2 cells): > 14 µM

From patent US10189863B2, “5,6-dihydro-4H-benzo[b]thieno-[2,3-d]azepine derivatives” (PULMOCIDE LIMITED, priority 2014, dated 2019)
